US20200022944A1, “COMPOSITION OR MEDICAL FOOD TO EXTRACT THE DIETARY IRON AND BOOST ITS BIOAVAILABILITY FOR IRON DEFICIENCY (ID) AND ID-ANEMIA” (TIXUPHARMA DI CARLO GHISALBERTI, priority 2017, published 2020)

Columns and labels:
[1] = Cell-free in vitro competition test for Fe(III) versus antinutrients; type: physicochemical; conditions: for recovery of Fe as 1:3 Fe-ligand complex in competition with non-cathecolic polyphenols (avg.): average; for recovery of Fe as 1:3 Fe-ligand complex in competition with non-cathecolic polyphenols (avg.) / recovery of Fe as 1:3 Fe-ligand complex in competition with oxalates / recovery of Fe as 1:3 Fe-ligand complex in competition with phosphate: vs citrate ref standard of 100% recovery; for recovery of Fe as 1:3 Fe-ligand complex in competition with oxalates / recovery of Fe as 1:3 Fe-ligand complex in competition with phosphate: sequential pH 6/2.5/6.5, CH2Cl2 extract read at 405 nm; for iron competition versus phytate and catecholic polyphenols: without enzymatic co-treatment
Experimental: The method evaluates the competitive affinity for Fe(III) of maltol/ethyl maltol versus antinutrients, i.e. the iron sequestering agents occurring in food, in a 3-step method which adopts a sequential pH 6/2.5/6.5 mimic the pHs occurring in stomach at fast, during gastro digestion and in duodenum, respectively. Stock solution at 10 mM conc. were prepared by dissolving in water the following reagents: (a) antinutrient series: EDTA (EDTA=negative control), ellagic acid (ELL), gallic acid (GAL), hesperidin (HES), naringin (NAR), monosodium oxalate (OXA), disodium phosphate (PHO), quercetin (QUE), rutin (RUT), tannic acid (TAN), phytic acid sodium salt (PHY); wherein the cathecolic polyphenols (CPP) are presented as pooled (b) maltol (MAL) and ethyl maltol (EMAL); […] In brief, in 15-ml tubes were combined 100 μl of 10 mM FAC (1 μmol); 1 ml of 10 mM CaCl2 (10 μmol); 1 ml of 10 mM 3-hydroxy-4-pyrone (10 μmol); 1 ml of each antinutrient at 10 mM (10 μmol); and 2 ml of water to 5 ml final volume. No antinutrients were introduced in the positive control. Tubes were oscillated at 30 rpm for 2.5 hours, of which: 1 hour at initial pH 6-6.5; 1 hour at pH 2-2.5 (by 50 μl 1N HCl), and final 30 min. at pH around 6.5 (by 50 μl 1N NaOH). The tubes were then added with 2 ml di CH2Cl2 and shacked for 2 min. […] Residues were taken up with 2 ml water and read at 405 nm. Absorbance calibration: r=0.30 and linear correlation within the 40-4 μM range (r2=1; […] on 0-intercept).

Caco-2 cells = assay: Caco-2 monolayer absorption: ferritin formation; conditions: 1 h contact at 37° C., 23 h re-incubation; Fe 200 μM
Experimental: Caco-2 cells cultivated and used at passages 24-50 in culture medium, serum-free MEM, were exposed to test substances in culture medium.
(§1) (a) maltol (MAL) and ethyl maltol (EMAL) at 10 mM concentration;
(§2) (c) iron sources: FAC (Fe^III) and ferrous sulfate (FS, Fe^III) at 1:10 eq/eq with respect to AA, at 1:20 eq/eq with respect to CA, and at 1:5 eq/eq with respect to MAL.
(§3) The final Fe concentration was fixed 200 μM with the other molar ratio as listed above, while the solution were then neutralized to pH 6-7.
One hour contact at 37° C. was used for similarity of duodenal contact time. After incubation 1 h the medium was aspirated, cell monolayer washed 3× PBS-EDTA and fresh MEM added. Cells were re-incubated for 23 h to allow ferritin formation, lysed with 400 μl of MPER® lysis buffer, lysate collected, centrifuged for 5′ at 16,000×g, and supernatant collected for analysis. The solutions were filter-sterilized (0.2 μm syringe filter) prior dilution in the culture medium.
Ferritin content of Caco-2 cells was determined by an ELISA kit, results corrected for the baseline values and expressed in relation to total cell protein in ng ferritin/mg cell protein.

[2] = test system: rodents conducted to anemia by iron starvation; assay: Murine model of anemic therapy (iron-deficient diet); type: in vivo, female Wistar rats; conditions: normalized-iron vegetal diet comprising the substance after ID diet, compared to both controls
Experimental: This in vivo murine study sized the capacity of maltol/ethyl maltol compounded into food to enhance iron uptake in rodents conducted to anemia by iron starvation. For that purpose, 6-wk old female Wistar rats were fed for 28 days a iron-deficient diet (Fe:12 mg/kg), labeled IDD1. A control group received standard diet (Fe:45 mg/kg) (Ctrl1) along the entire experiment. In the second stage, IDD1 rats were randomized for 26 days test diets conceived as follows: the M3 and EM3 groups received cookies with 3% of maltol or 3% ethyl maltol, respectively. The M/EMO group was fed with cookies without maltol/ethyl maltol; while the IDD2 group was maintained at Fe-deficient diet. […] Cookies were produced from corn flour and vegetal fat, and backed at 180° C. for 15 minM, whereas in M3 and EM3 groups a portion (3%) of corn flour was replaced with maltol and ethyl maltol. Animals were kept in room with 12 h light/dark cycle, temperature of 24° C. […], and drinking water ad libitum. […] Serum iron was measured at 623 nm, haemoglobin content (Hb) total iron binding capacity (TIBC), erythrocytes, haemoglobin (Hb), hematocrit (Ht), mean corpuscular volume (MCV), mean corpuscular haemoglobin (MCH), and MCH concentration (MCHC) assessed according to Regula et al. Ann Agric Environ Med 2016;23(2):310-4. Iron transferrin saturation (TSAT) was calculated by the formula: TSAT=(Fe/TIBC)×[…].

[3] = test system: inflammatory bowel disease; conditions: animal model of IBD; Minaiyan et al. 2012; cited from earlier work
[4] = In vitro digestion model: extraction of dietary non-heme iron from vegetal foods; conditions: for yield of extracted iron from vegetal food: canned soybean, red beans, peas, 1 ml 10 mM, versus water control; for surplus of yields of gastroactive (GA) model over gastropassive (GP) condition: with versus without classic digestive enzymes
Experimental: The method assessed the extraction of dietary non-heme iron by maltol or ethyl maltol in simulated digestion of vegetal foods, with/without digestive enzymes. In brief, samples (10 g) of vegetable foods, viz. canned soybean, red beans and peas were smashed in mortar with 5 ml water. Specimen were combined in 50 ml tubes supplemented with HCl solution (pH 2.5) of mix of classic digestive enzymes consisting in: 2 mg pepsin 1:3000; 0.5 mg lipase 200 FIP/g; and bile enzymes, i.e. 2.5 mg bovine bile extract; 1.25 pancreatin extract 4:1 in “gastroactive” model (“GA”). A parallel test named “gastropassive” use non enzymes. Tube were added with 1 ml maltol/ethyl maltol 10 mM, or water in control, and underwent 2 hours of slow motion (60 o/min) at controlled temperature. The pH was finally adjusted to 6-7 (1N NaOH) and the tubes remained on oscillation for further 30 min. The digests were collected, filtered at 100 μm mesh, diluted and read at 405 nm. Results expressed as % recovery of Fe calculated against a calibration curve) are plotted in FIG. 3.

[5] = pH 6
Experimental: as §1, §2, §3
Total iron was determined by inductively-coupled plasma optical emission spectrometry, where both ICP-OES standards and samples were diluted in 0.5% HNO3 in 0-1000 ppb range. Physical classification of iron was assessed after centrifugation (10,000×g, 5 min.), the supernatant was ultrafiltrated with 3kDa MWCO filter 10,000×g, 10 min. Phase distribution was calculated as: iron microparticulate (total Fe−Fe in supernatant), iron nanoparticulate (Fe ultrafiltrate−Fe in supernatant) and soluble iron (Fe ultrafiltrate/total Fe).

| SMILES | recovery of Fe as 1:3 Fe-ligand complex in competition with non-cathecolic polyphenols (avg.) [1] [%] | recovery of Fe as 1:3 Fe-ligand complex in competition with oxalates [1] [%] | recovery of Fe as 1:3 Fe-ligand complex in competition with phosphate [1] [%] | iron competition versus phytate and catecholic polyphenols [1] | ferritin formation in Caco-2 cells (Caco-2 cells) | recovery of iron and hematologic levels [2] | therapeutic dosage (ED50) [3] | yield of extracted iron from vegetal food [4] | surplus of yields of gastroactive (GA) model over gastropassive (GP) condition [4] | iron solubility / phase distribution [5] |
| --- | --- | --- | --- | --- | --- | --- | --- | --- | --- | --- |
| Cc1occc(=O)c1O [maltol] | 95 | 89 | 98 | limited efficiency | produced soluble iron utilized by enteric cells for ferritin synthesis | faster recovery of iron and hematologic levels | 140-240 mg/kg bw | increased the yield of extracted iron from vegetal food | about 10% | retain the Fe(III) solubility at supplemental levels |
| CCc1occc(=O)c1O [ethyl maltol] | 95 | 89 | 98 | limited efficiency | produced soluble iron utilized by enteric cells for ferritin synthesis | faster recovery of iron and hematologic levels |  | increased the yield of extracted iron from vegetal food | about 10% |  |
